Here are results for 20 compounds from patent publication US8735414B2 (priority 2009, dated 2014).

Data set [1] has as its system bicistronic HCV replicon (replicon RNA, GenBank Accession No. AJ242654). Description: HCV Replicon Assay. In kind it is cell-based. Particulars: Hepatitis C virus, 72 h, read-out: Replicon IC50.

Each structure is given as a SMILES string.

Turning to `COc1ccc2c(C#N)c(-c3ccc(S(=O)(=O)N[C@@H](C)C(F)(F)F)cn3)n(C3CCC3)c2c1` [compound 427, 6-(3-cyano-1-cyclobutyl-6-methoxy-1H-indol-2-yl)-N-[(2S)-1,1,1-trifluoropropan-2-yl]pyridine-3-sulfonamide], the melting point (usually the temperature, or range, at which the solid turns liquid) lay in the range of 206 to 212 °C. Further, the concentration for half-maximal inhibition (IC50) (in general, the concentration that gives 50% inhibition) in data set [1] is less than 0.5 µM.

The compound `COc1ccc2c(C#N)c(-c3ccc(S(=O)(=O)N[C@H](C)C(F)(F)F)cn3)n(C3CCC3)c2c1` [compound 428, 6-(3-cyano-1-cyclobutyl-6-methoxy-1H-indol-2-yl)-N-[(2R)-1,1,1-trifluoropropan-2-yl]pyridine-3-sulfonamide] came in with a melting point of 206 to 212 °C. For the same compound, the IC50 in data set [1] was less than 0.5 µM.

`COc1ccc2c(C#N)c(-c3ccc(S(=O)(=O)N[C@@H](C)C4CC4)cn3)n(C3CCC3)c2c1` [compound 429, 6-(3-cyano-1-cyclobutyl-6-methoxy-1H-indol-2-yl)-N-[(1S)-1-cyclopropylethyl]pyridine-3-sulfonamide]: the melting point fell in the range of 193 to 199 °C. In addition, the IC50 in data set [1] is less than 0.5 µM.

The compound `COc1ccc2c(C#N)c(-c3ccc(S(=O)(=O)N[C@@H](C)C(F)(F)F)cn3)n(C3CCCC3)c2c1` [compound 430, 6-(3-cyano-1-cyclopentyl-6-methoxy-1H-indol-2-yl)-N-[(2S)-1,1,1-trifluoropropan-2-yl]pyridine-3-sulfonamide] registered a melting point of 209 to 216 °C. Besides, the half-maximal inhibitory concentration (IC50) in data set [1] is less than 0.5 µM.

In the case of `COc1ccc2c(C#N)c(-c3ccc(S(=O)(=O)N[C@H](C)C(F)(F)F)cn3)n(C3CCCC3)c2c1` [compound 431, 6-(3-cyano-1-cyclopentyl-6-methoxy-1H-indol-2-yl)-N-[(2R)-1,1,1-trifluoropropan-2-yl]pyridine-3-sulfonamide], the melting point lay within 209 to 216 °C. Also, the half-inhibitory concentration (IC50) in data set [1] is less than 0.5 µM.

`COc1ccc2c(C#N)c(-c3ccc(S(=O)(=O)N[C@@H](C)C4CC4)cn3)n(C3CCCC3)c2c1` [compound 432, 6-(3-cyano-1-cyclopentyl-6-methoxy-1H-indol-2-yl)-N-[(1S)-1-cyclopropylethyl]pyridine-3-sulfonamide] had a melting point of 199 to 209 °C. For the same compound, the 50% inhibitory concentration (IC50) in data set [1] is less than 0.5 µM.

In the case of `C[C@H](NS(=O)(=O)c1ccc(-c2c(C#N)c3cc(F)ccc3n2CC2CC2)nc1)C(F)(F)F` [compound 436, 6-[3-cyano-1-(cyclopropylmethyl)-5-fluoro-1H-indol-2-yl]-N-[(2S)-1,1,1-trifluoropropan-2-yl]pyridine-3-sulfonamide], the melting point is 165 to 167 °C. Besides, the IC50 in data set [1] was less than 0.5 µM.

As for `C[C@H](NS(=O)(=O)c1ccc(-c2c(C#N)c3ccc(Cl)cc3n2-c2ccccn2)nc1)C(F)(F)F` [compound 437, 6-[6-chloro-3-cyano-1-(pyridin-2-yl)-1H-indol-2-yl]-N-[(2S)-1,1,1-trifluoropropan-2-yl]pyridine-3-sulfonamide], the melting point lay in the range of 177 to 178 °C. In addition, the IC50 in data set [1] was less than 0.5 µM.

In turn, `N#Cc1c(-c2ccc(S(=O)(=O)NC(CF)CF)cn2)n(-c2ccccn2)c2cc(Cl)ccc12` [compound 438, 6-[6-chloro-3-cyano-1-(pyridin-2-yl)-1H-indol-2-yl]-N-(1,3-difluoropropan-2-yl)pyridine-3-sulfonamide] displayed a melting point of 219 to 221 °C. Also, the 50% inhibitory concentration (IC50) in data set [1] was less than 0.5 µM.

In the case of `CC(C)NS(=O)(=O)c1ccc(-c2c(C#N)c3cc(F)ccc3n2-c2ccccn2)nc1` [compound 439, 6-[3-cyano-5-fluoro-1-(pyridin-2-yl)-1H-indol-2-yl]-N-(propan-2-yl)pyridine-3-sulfonamide], the melting point was 208 to 210 °C. The half-inhibitory concentration (IC50) in data set [1] was less than 0.5 µM.

Compound `C[C@H](NS(=O)(=O)c1ccc(-c2c(C#N)c3cc(Cl)ccc3n2-c2ccccc2)nc1)C(F)(F)F` [compound 441, 6-(5-chloro-3-cyano-1-phenyl-1H-indol-2-yl)-N-[(2S)-1,1,1-trifluoropropan-2-yl]pyridine-3-sulfonamide] returned a melting point of 210 to 212 °C. The half-inhibitory concentration (IC50) in data set [1] is less than 0.5 µM.

Compound `C[C@H](NS(=O)(=O)c1ccc(-c2c(C#N)c3cc(Cl)ccc3n2-c2ccccn2)nc1)C(F)(F)F` [compound 442, 6-[5-chloro-3-cyano-1-(pyridin-2-yl)-1H-indol-2-yl]-N-[(2S)-1,1,1-trifluoropropan-2-yl]pyridine-3-sulfonamide] registered a melting point of 186 to 188 °C. Further, the half-inhibitory concentration (IC50) in data set [1] was less than 0.5 µM.

As for `N#Cc1c(-c2ccc(S(=O)(=O)NC(CF)CF)cn2)n(-c2ccccn2)c2ccc(Cl)cc12` [compound 443, 6-[5-chloro-3-cyano-1-(pyridin-2-yl)-1H-indol-2-yl]-N-(1,3-difluoropropan-2-yl)pyridine-3-sulfonamide], the melting point lay within 187 to 188 °C. Further, the concentration for half-maximal inhibition (IC50) in data set [1] was less than 0.5 µM.

In the case of `Cc1cc2c(cc1Cl)c(C#N)c(-c1ccc(S(=O)(=O)NC(CF)CF)cn1)n2C1CCC1` [compound 444, 6-(5-chloro-3-cyano-1-cyclobutyl-6-methyl-1H-indol-2-yl)-N-(1,3-difluoropropan-2-yl)pyridine-3-sulfonamide], the melting point lay within 189 to 193 °C. In addition, the IC50 in data set [1] was less than 0.5 µM.

In turn, `Cc1cc2c(cc1Cl)c(C#N)c(-c1ccc(S(=O)(=O)N[C@H](C)C(F)(F)F)cn1)n2C1CCC1` [compound 445, 6-(5-chloro-3-cyano-1-cyclobutyl-6-methyl-1H-indol-2-yl)-N-[(2R)-1,1,1-trifluoropropan-2-yl]pyridine-3-sulfonamide] showed a melting point of 213 to 215 °C. For the same compound, in data set [1], the half-maximal inhibitory concentration (IC50) was less than 0.5 µM.

As to `Cc1cc2c(cc1Cl)c(C#N)c(-c1ccc(S(=O)(=O)N[C@@H](C)C(F)(F)F)cn1)n2C1CCC1` [compound 446, 6-(5-chloro-3-cyano-1-cyclobutyl-6-methyl-1H-indol-2-yl)-N-[(2S)-1,1,1-trifluoropropan-2-yl]pyridine-3-sulfonamide], the melting point was 209 to 210 °C. In data set [1], the 50% inhibitory concentration (IC50) was less than 0.5 µM.

In turn, `Cc1cc2c(cc1Cl)c(C#N)c(-c1ncc(S(=O)(=O)NC(CF)CF)cn1)n2C1CCC1` [compound 447, 2-(5-chloro-3-cyano-1-cyclobutyl-6-methyl-1H-indol-2-yl)-N-(1,3-difluoropropan-2-yl)pyrimidine-5-sulfonamide] gave a melting point of 275 to 279 °C. For the same compound, in data set [1], the IC50 is less than 0.5 µM.

In the case of `Cc1cc2c(cc1Cl)c(C#N)c(-c1ncc(S(=O)(=O)N[C@@H](C)C(F)(F)F)cn1)n2C1CCC1` [compound 448, 2-(5-chloro-3-cyano-1-cyclobutyl-6-methyl-1H-indol-2-yl)-N-[(2S)-1,1,1-trifluoropropan-2-yl]pyrimidine-5-sulfonamide], the melting point is greater than 300 °C. Moreover, in data set [1], the IC50 was 0.5 to 2 µM.

As for `C[C@H](NS(=O)(=O)c1cnc(-c2c(C#N)c3ccc(Cl)cc3n2-c2ccccn2)nc1)C(F)(F)F` [compound 449], the melting point was 163 to 166 °C. In data set [1], the IC50 was less than 0.5 µM.

On to `N#Cc1c(-c2ncc(S(=O)(=O)NC(CF)CF)cn2)n(-c2ccccn2)c2cc(Cl)ccc12` [compound 450, 2-[6-chloro-3-cyano-1-(pyridin-2-yl)-1H-indol-2-yl]-N-(1,3-difluoropropan-2-yl)pyrimidine-5-sulfonamide], for which the melting point lay within 234 to 235 °C. Also, in data set [1], the half-inhibitory concentration (IC50) is less than 0.5 µM.
